{
  "source": "patent US20230107216A1",
  "about": "“PANTETHEINE DERIVATIVES AND USES THEREOF” (Comet Therapeutics, Inc., priority 2018, published 2023)",
  "key": {"[1]": {"tested_on": "Leigh Syndrome (LS) primary fibroblasts GM03672", "test": "NADP+/NADPH (NADP/NADPH-Glo), Leigh fibroblasts GM03672", "assay_type": "cell-based", "details": "Homo sapiens, Fibroblast, 24h, read-out: Increase in Total NADP+ + NADPH"}, "[2]": {"tested_on": "Very long-chain acyl-CoA dehydrogenase (VLCAD) primary fibroblasts GM17475", "test": "NADP+/NADPH (NADP/NADPH-Glo), VLCAD fibroblasts GM17475", "assay_type": "cell-based", "details": "Homo sapiens, Fibroblast, VLCAD GM17475 P10, assay condition A (10 mM glucose, 2 mM L-glutamine, 1 mM pyruvate, 10% FBS), 24h, read-out: Increase in Total NADP+ + NADPH", "procedure": "(§1) Primary adherent fibroblasts were cultured in minimum essential medium (MEM) (Gibco, 25030081) supplemented with 2 mM L-Glutamine (Gibco, 25030081), 15% fetal bovine serum (FBS) (Gibco, 26400044) and 1% penicillin/streptomycin (Gibco, 5140122) at 37° C. and 5% CO2. Cells were collected for either passaging or experiment at ˜70-80% confluence. Cells were obtained by trypsinization and seeded in cell culture microplates either white plate (Thermo Fisher Scientific, 152028) for luminescent measurement or black plate (Thermo Fisher Scientific, 165305) for fluorescent based read out for different assays listed below. Cells were obtained by trypsinization and […] were seeded and allowed to adhere for 16-18 hours to have confluency around 70-80% in the cell well with culture media. After 24 hours prior to measurements (37° C., 5% CO2) media was changed to Dulbecco's Modified Eagle Medium (DMEM, Agilent Seahorse cat #103575-100) with the appropriate supplements as stated below.\n(§2) Primary fibroblasts assayed were Propionic Acidemia (PA) (GM03590 Coriell Institute for Medical Research, Tsi 6337 Trans-Hit Bio), Methylmalonic Acidemia (MMA) (Tsi 5224 Trans-Hit Bio), Subnormal activation of pyruvate dehydrogenase complex (PDH) (GM01503 Coriell Institute for Medical Research), Very long-chain acyl-CoA dehydrogenase (VLCAD) (GM17475), Leigh Syndrome (LS) (GM03672, GM13411 Coriell Institute for Medical Research), Pyruvate Carboxylase Deficiency (PC) (GM00444 Coriell Institute for Medical Research). 10 μM of Compounds were added for 2 hours in PA, MMA lines and for 24h for the other fibroblast lines.\n(§3) Assay was performed according to manufacturer instructions (NADP+/NADPH-Glo Assay Promega, G9082). Assay required a plate for total measurement of NADP+/NADPH and a plate for individual measurement of NADP+ or NADPH. For every assay a 12-point standard curve is prepared ranging from 400 nM to 0.625 nM. Media is removed and replaced with 50 μl of PBS for both assays.\n(§4) For individual NADP+/NADPH measurements, 50 μl of 1% DTAB (Sigma, D5047) (cell lysis reagent) in 0.2N NaOH was added to the plates and 100 μl of lysate was split into two plates with 50 μl each from which ratio of NADP/NADPH can be calculated. 25 μl of 0.4N HCl were added to the NADP+ plates and both NADP+ and NADPH plates were heated at 60° C. for 15 minutes. The acid and heat treatment destroyed NADPH allowing individual NADP+ measurements while heating in basic conditions destroys NADP+ allowing individual NADPH measurement. After 15 minutes plates were allowed to come to room temperature and Trizma base (Sigma, T1699) was added to the NADP+ plates to neutralize the acid and HCl Trizma hydrochloride (Sigma, T2694) was added to the NADPH plates. The NADNADPH glo reagent was prepared by adding 125 μl of NAD cycling substrate, 125 μl of reductase, 125 μl of reductase substrate, 125 μl NAD cycling enzyme to a total of the 25 ml of NAD GLO reagent. 1:1 ratio of total volume of reagent was added to the individual NADP+, NADPH measurements (total 100 μl) and 50 μl were added for the total NAD/NADPH measurements. Luminescence was measured for 30-60 minutes within the linear range.\n(§5) A total dead cell count was performed as described in Example 817 and only alive cells were used for analysis."}, "[3]": {"tested_on": "Subnormal activation of pyruvate dehydrogenase complex (PDH) primary fibroblasts GM01503", "test": "NADP+/NADPH (NADP/NADPH-Glo), PDH fibroblasts GM01503", "assay_type": "cell-based", "details": "Homo sapiens, Fibroblast, PDH GM01503 P10, assay condition A (10 mM glucose, 2 mM L-glutamine, 1 mM pyruvate, 10% FBS), 24h, read-out: Increase in Total NADP+ + NADPH", "procedure": "as §1, §2, §3, §4, §5"}, "[4]": {"tested_on": "Coronary artery smooth muscle cells (CASM3C system)", "test": "BioMAP CASM3C system (IL-1β, TNFα, IFNγ)", "assay_type": "cell-based, human"}, "[5]": {"tested_on": "Dermal fibroblasts (HDF3CGF system)", "test": "BioMAP HDF3CGF system (IL-1β, TNFα, IFNγ, EGF, bFGF, PDGF-BB)", "assay_type": "cell-based, human", "details": "1 uM"}, "[6]": {"details": "Leigh GM03672 P8, assay condition B (1 mM glucose, 2 mM L-glutamine, 1 mM pyruvate, 10% FBS)"}},
  "note": "Where two headings read alike, the source gives them in different places.",
  "data": [
    {"smiles": "CC(C)(CO)[C@@H](O)C(=O)NCCC(=O)NCCSC(=O)CC(=O)CCC(=O)O", "note": "[Compound 2, 6-[(2-[3-[(2R)-2,4-dihydroxy-3,3-dimethylbutanamido]propanamido]ethyl)sulfanyl]-4,6-dioxohexanoic acid]", "values": [
      {"measurement": "activation at 10 µM", "setting": "[1]; [6]", "value": "≥ 10", "unit": "%"},
      {"measurement": "activation at 10 µM", "setting": "[2]", "value": "≥ 10", "unit": "%"}
    ]},
    {"smiles": "CC(=O)OCC(C)(C)[C@@H](O)C(=O)NCCC(=O)NCCSC(=O)CC(=O)CCC(=O)O", "note": "[Compound 140, 6-[(2-[3-[(2R)-4-(acetyloxy)-2-hydroxy-3,3-dimethylbutanamido]propanamido]ethyl)sulfanyl]-4,6-dioxohexanoic acid]", "values": [
      {"measurement": "activation at 10 µM", "setting": "[3]", "value": "≥ 10", "unit": "%"},
      {"measurement": "activation at 10 µM", "setting": "[1]; [6]", "value": "≥ 10", "unit": "%"},
      {"measurement": "activation at 10 µM", "setting": "[2]", "value": "≥ 10", "unit": "%"}
    ]},
    {"smiles": "COC(=O)CC(C(C)=O)C(=O)SCCNC(=O)CCNC(=O)[C@H](O)C(C)(C)CO", "note": "(stereo partly drawn) [Compound 410]", "values": [
      {"measurement": "activation at 10 µM", "setting": "[3]", "value": "≥ 10", "unit": "%"},
      {"measurement": "activation at 10 µM", "setting": "[1]; [6]", "value": "≥ 10", "unit": "%"},
      {"measurement": "activation at 10 µM", "setting": "[2]", "value": "≥ 10", "unit": "%"}
    ]},
    {"smiles": "C[C@H](O)CC(=O)CC(=O)SCCNC(=O)CCNC(=O)[C@H](O)C(C)(C)CO", "note": "[Compound 1306, (2R)-2,4-dihydroxy-N-[2-[(2-[[(5S)-5-hydroxy-3-oxohexanoyl]sulfanyl]ethyl)carbamoyl]ethyl]-3,3-dimethylbutanamide]", "values": [
      {"measurement": "activation at 10 µM", "setting": "[3]", "value": "≥ 10", "unit": "%"},
      {"measurement": "activation at 10 µM", "setting": "[1]; [6]", "value": "≥ 10", "unit": "%"}
    ]},
    {"smiles": "COC(=O)CCC(=O)SCCNC(=O)CCNC(=O)[C@H](OC(=O)CNC(C)=O)C(C)(C)CO", "note": "[Compound 1298, methyl 4-[(2-[3-[(2R)-2-[(2-acetamidoacetyl)oxy]-4-hydroxy-3,3-dimethylbutanamido]propanamido]ethyl)sulfanyl]-4-oxobutanoate]", "values": [
      {"measurement": "% decrease in uPAR", "setting": "[4]; 1 uM", "value": "≥10", "unit": "%"},
      {"measurement": "% decrease in LDLR", "setting": "[4]; 1 uM, procedure of Example 832", "value": "≥10", "unit": "%"},
      {"measurement": "% decrease in VCAM-1", "setting": "[4]; 1 uM, procedure of Example 832", "value": "≥10", "unit": "%"},
      {"measurement": "% increase in Proliferation", "setting": "[4]; 10 uM, procedure of Example 832", "value": "≥10", "unit": "%"},
      {"measurement": "inhibition at 10 µM", "setting": "[4]; Homo sapiens, 24 h, 10 uM, read-out: % decrease in Thrombomodulin", "value": "≥ 20", "unit": "%"},
      {"measurement": "activation at 10 µM", "setting": "[1]; Leigh GM03672 P9, assay condition A (10 mM glucose, 2 mM L-glutamine, 1 mM pyruvate, 10% FBS)", "value": "≥ 10", "unit": "%"},
      {"measurement": "% decrease in TIMP-1", "setting": "[5]", "value": "≥10", "unit": "%"},
      {"measurement": "% decrease in TIMP-2", "setting": "[5]", "value": "≥10", "unit": "%"}
    ]}
  ]
}
